In PubChem BioAssay (NCI):
Values joined by “and” are separate entries in the source; they are usually repeats but may differ in a detail not shown here. Identical values can stand only once.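 Briefly, cells in 96-well plates were exposed to five compound concentrations for 48 h, and endpoints were estimated by linear interpolation. The concentration for 50% growth inhibition is given as GI50. At the TGI there is no net growth.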

Tests used:
Assay in all cases: inhibition of tumour cell growth, NCI panel, 48 h
786-0 renal = tested on: 786-0 renal
MDA-MB-231 breast = tested on: MDA-MB-231 breast
SK-MEL-28 melanoma = tested on: SK-MEL-28 melanoma
PC-3 prostate = tested on: PC-3 prostate
SR leukemia = tested on: SR leukemia
UO-31 renal = tested on: UO-31 renal
SK-OV-3 ovarian = tested on: SK-OV-3 ovarian
CAKI-1 renal = tested on: CAKI-1 renal
MCF7 breast = tested on: MCF7 breast
KM12 colon = tested on: KM12 colon

Structure (SMILES)	TGI (786-0 renal) [µM]	TGI (MDA-MB-231 breast) [µM]	TGI (SK-MEL-28 melanoma) [µM]	TGI (PC-3 prostate) [µM]	GI50 (SR leukemia)	TGI (SR leukemia) [µM]	TGI (UO-31 renal) [µM]	TGI (SK-OV-3 ovarian) [µM]	TGI (CAKI-1 renal) [µM]	TGI (MCF7 breast) [µM]	TGI (KM12 colon) [µM]
Cc1nc2c(Br)cc(Br)cc2c(=O)n1-c1ccccc1NC1OC(CO)C(O)C(O)C1O (stereo unspecified)	> 100	> 100	> 100	> 100	> 100 µM and 44.8 µM	> 100	> 100	> 100	> 100	> 100	> 100
O=C1/C(=C/c2ccccc2)Oc2cc(O)ccc21	> 100	> 100	> 100	> 100	–	> 100	> 100	> 100	> 100	> 100	> 100
Clc1ccc2c(c1)N(CCCN1CCCC13CCCCC3)c1ccccc1S2	23.7	21.5	30.3	20.6	–	17.5	22.4	57.7	> 76.8	32.3	27.7
COC(=N)C1(C#N)NC(c2ccsc2)C(C#N)(C#N)NC1c1ccsc1 (stereo unspecified)	> 100	> 100	> 100	> 100	–	> 100	> 100	> 100	> 100	> 100	> 100
O=C(CNc1ccccc1C(=O)O)Nn1cnc2ccc(S(=O)(=O)Nc3ccccc3C(=O)O)cc2c1=O	> 100	> 100	> 100	> 100	–	> 100	> 100	> 100	> 100	> 100	> 100
C=C(NC(=O)C(=C)NC(=O)c1ccc2c(n1)-c1coc(n1)C(=C)NC(=O)C(=C)NC(=O)c1nc(oc1C)C(=C)NC(=O)C(C(C)(C)O)NC(=O)C(=C)NC(=O)c1coc(n1)/C(=C/C)NC(=O)[C@H]([C@@H](C)O)NC(=O)c1csc-2n1)C(N)=O (stereo partly specified)	> 87.5	> 87.5	> 87.5	> 87.5	–	> 87.5	> 87.5	–	> 87.5	> 87.5	> 87.5
CC(C)(C)C1CCC2c3c([nH]c4ccccc34)C3C(=O)N(c4ccc([N+](=O)[O-])cc4)C(=O)C3C2C1 (stereo unspecified)	18.9	48.4	> 100	> 100	–	19.7	–	73.9	–	17.9	35.7
COc1cc2c(cc1OC)C(=O)N(c1ccc(OCCN3CCCC3)cc1)C2	> 100	> 100	> 100	> 100	–	> 100	–	> 100	> 100	> 100	> 100
FC1=C2C3CCC(C3)C2C1(F)F (stereo unspecified)	> 100	> 100	> 100	> 100	–	–	> 100	> 100	> 100	> 100	> 100
CC(O)c1nc(C#N)c(N)o1 (stereo unspecified)	> 100	> 100	> 100	> 100	–	–	> 100	> 100	> 100	> 100	> 100
CCN1CC2(C)CCC(OC)C34C5CC6CCC(O)(C5C(=O)O6)C(C(O)C23)C14 (stereo unspecified)	> 100	> 100	> 100	> 100	–	–	> 100	> 100	> 100	> 100	> 100
c1cnc2c(c1)-n1cccc1C1(CCCCC1)NN2	> 100	–	> 100	–	–	> 100	79.9	–	> 100	–	> 100
CC1=C(C)C(=O)C(C2=CC(=O)c3ccccc3C2=O)=C(C2=CC(=O)c3ccccc3C2=O)C1=O	> 58.1	13.4	23.5	21.7	–	–	25.4	45.8	8.86	–	28.9
O=C(O)c1c(CC(Cc2ccc3c(c2)CCC3)C(=O)O)ccc2c1CCC2 (stereo unspecified)	> 100	> 100	> 100	> 100	–	> 100	> 100	–	> 100	> 100	> 100
CC(C)CCCC(C)[C@H]1CCC(C2C[C@@H](O)[C@@H]3CC(O)[C@@H](O)C[C@]3(CO)C2=O)[C@]1(C)CCO (stereo partly specified)	–	–	40.5	–	–	–	49.8	67.1	–	20.4	19.6
COC(=O)[C@]1(c2cc3ccccc3n2S(=O)(=O)c2ccccc2)CC2CN(C(=O)OCc3ccccc3)C1C1OC(C)(C)OC21 (stereo partly specified)	> 100	> 100	> 100	> 100	–	–	> 100	> 100	> 100	> 100	> 100
CSC(SC)=C(C(=O)c1ccc(Cl)cc1)n1c(=O)sc2cc(Br)ccc21	> 100	> 100	> 100	> 100	–	–	> 100	> 100	> 100	> 100	> 100
CC(=O)C(=Cc1cn(C)c(=O)n(C)c1=O)C(C)=O	–	–	209	–	–	–	175	327	224	625	189
COC(=O)c1sc(=O)sc1SCc1cccc(CSc2sc(=O)sc2C(=O)OC)c1	31.4	67.4	> 100	> 100	–	–	> 100	51.4	93.5	> 100	> 100
C[s+]1c2ccccc2c2ccccc21	> 100	–	> 100	–	–	> 100	> 100	–	–	–	> 100
COC(=O)C1=C(CCCCO[Si](C)(C)C(C)(C)C)NC(=O)N2[C@H](CCOCc3ccccc3)CC[C@@H]12	> 100	> 100	> 100	> 100	–	–	> 100	> 100	> 100	> 100	> 100
COc1cc2c(cc1O)C1Cc3ccc(OC)c(O)c3C[N+]1(C)CC2 (stereo unspecified)	> 100	> 100	> 100	> 100	–	–	> 100	> 100	> 100	> 100	> 100
CCOP(=O)(/C=C/n1cc(C)c(=O)[nH]c1=O)OCC	> 100	> 100	> 100	> 100	–	–	–	> 100	> 100	> 100	> 100
